{
  "source": "patent US5677285A",
  "about": "“Derivatives of neuraminic acid” (Fidia S.P.A., priority 1992, dated 1997)",
  "key": {"[1]": {"system": "cerebellar granule cells", "test": "Protective effect on exogenous glutamate-induced neurotoxicity during cotreatment, FDA/PI test", "format": "cell-based, rats", "conditions": "Rattus norvegicus, 24 h, glutamate 50 μM cotreatment, read-out: % surviving cells N = 4 (average + s.e.) FDA/PI test", "protocol": "Primary cerebellar granule cells were prepared from 8 day old rats (Zivic Miller, Pittsburgh, Pa, USA). […] Glial proliferation was prevented by arabinofuranoside cytosine.\nThe following concentrations were tested: 5×10^-6 M, 1×10^-5 M, and 2×10^5 M.\nThe cell culture medium was aspirated from the plates (and correctly maintained). Plates were washed (3×2 ml) with Locke's solution without Mg^++, and solutions (1.5 ml) containing the compound to be tested (concentrations from 5×10^6 M to 2×10^5 M) were added and incubated for 2 hours in an incubator at 37° C. (5% CO2).\nTreated cells were washed (3×2 ml) with Locke's solution+10% fetal calf serum, then washed (3×2 ml) with Locke's solution without Mg^++. 1.5 ml of Locke's solution (-Mg^++) or 50 μM of glutamate±the test compound (concentrations between 1 and 4×10^-5 M) in 1.5 ml of Locke's solution (-M^++) were added. The incubation was conducted for 15 minutes (37° C.). Glutamate and the compound were removed. The plates were washed with Locke's solution (2×2 ml), and then incubated in the presence of the starting medium (correctly maintained) for 24 hours at 37° C. in an incubator (5% CO2). […] The stained cells where immediately analyzed using a standard fluorescence microscope for epiillumination (Vanox Olympus, 450 nm excitation, 520 nm emission). FDA, a non polar ester, crosses cell membranes and is hydrolyzed by intracellular esterases with the consequent production of a yellow greenish color.\nAfter glutamate treatment, some neurons can degenerate and detach from the plates. The loss of cells was estimated by comparing the number of intact or degenerated neurons in a well defined field, which was photographed before and after 24 hours after application of glutamate. The percent of surviving neurons in 4 representative fields (magnification 40×) of each monolayer was determined by a researcher unaware of the experimental conditions, evaluating the FDA/PI color, and calculating it as follows: [formula]\nData are expressed as % of surviving cells. Significance was calculated using the Dunnett's test."}, "[2]": {"system": "cerebellar granule cells", "test": "Extracellular glutamate and aspartate content in potassium induced depolarization (HPLC)", "format": "cell-based, Sprague-Dawley rats", "method": "Primary cell cultures of cerebellar granule cells were prepared from 8 day old Sprague-Dawley rats.\n(§1) Neurons were grown in 35 mm plates for 11-13 days and maintained in a humid environment (95% air and 5% CO2). Cultures (3×10^6 cells/plate) are mainly formed by granule cells (95%, with a small amount (5%) of glial cells (Gallo V. et al.: Selective release of glutamate from cerebellar granule cells differentiating in culture. Proc. Natl. Acad. Sci. USA 79, 7919-23, 1982). Glial proliferation was prevented by arabinofuranoside cytosine.\nDerivative ND37 was solubilized at a concentration of […] in dimethylsulfoxide (1% DMSO), and then diluted at various concentrations (0.1-1-10-20 μM) in Locke's solution (154 mM NaCl/5.6 mM KCl/3.6 mM NaHCO3 /2.3 mM CaCl2 /1 mM MgCl2 /5.6mM glucose/5 mM HEPES, pH 7.4). […]\nThe cell culture medium was aspirated from the plates. Plates were washed (3×2 ml) with Locke's solution, and solutions (750 μl) containing the compound to be tested (concentrations from 0.1 to 20 μM) were added and incubated for 2 hours in an incubator at 37° C. (5% CO2) both in the presence and absence of different depolarizing concentrations of KCl (between 5 and 50 mM). The incubation medium was gathered, filtered through a 0.2 μ filter, and processed (220 μl) for the analysis of the amino acid content.\nThe glutamate and aspartate content (expressed as μM) was evaluated by HPLC (high pressure liquid chromatography), according to Bidlingmeryer B. A. et al., J. Chromatogr. 336, 93-104, 1984."}, "[3]": {"system": "cerebellar granule cells and cortical neurons", "test": "Whole cell registration of glutamate-activated inward currents", "format": "cell-based, rats", "conditions": "glutamate 50 μM given contemporaneously with ND37 30 μM; absence of Mg++", "method": "Primary cell cultures of cerebellar granule cells were prepared from 8 day old rats (Zivic Miller, Pittsburgh, Pa, USA).\nas §1, with “grown on” for “grown in”, “for 7-8” for “for 11-13”, “Cultures (2.5×10^6” for “Cultures (3×10^6”, “cells/plate) were” for “cells/plate) are”, “cells (95%),” for “cells (95%,”\nPrimary cell cultures of cortical neurons were prepared from one day old neonatal […] (Zivic Miller, Pittsburgh, Pa., USA) (Bertolino and Vicini: Mol. Pharmacol. 34, 98-103, 1988).\nCultures were grown on 35 mm plates, to which was added 10 μg/ml of poly-L-lysine, at a density of 5×10^5 cortical neurons/plate. Cultures were prepared on basal Eagle medium (Gibco) containing 10% fetal calf serum (Gibco), 25 mM KCl, 2 mM glutamine, and 100 μg/ml gentamycine. […]\nDerivative ND37 was solubilized at a concentration of 1×10^-2 M in dimethylsulfoxide (1% DMSO), and then diluted at various concentrations in Locke's solution (-Mg^++) (154 mM NaCl/5.6 mM KCl/3.6 mM NaHCO3 /2.3 mM CaCl2 /5.6 mM glucose/5 mM HEPES, pH 7.4). ND37 was analyzed at concentrations of 20 and 30 μM. […]"}, "[4]": {"conditions": "controls + ND 37 (20 uM), no KCl"}, "[5]": {"conditions": "group 3: KCl (50 mM) + ND37 (20 uM) as printed, corresponding group KCl (30 mM)"}, "[6]": {"conditions": "group 4: KCl (50 mM) + ND37 (20 uM), Table 5"}, "[7]": {"conditions": "group 5: KCl (50 mM) + ND37 (20 uM) as printed, corresponding group KCl (25 mM)"}, "[8]": {"conditions": "group 6: KCl (50 mM) + ND37 (20 uM) as printed, corresponding group KCl (15 mM)"}},
  "note": "“Also recorded” adds a separate entry of the source. Read-outs that look alike come from different tables or passages of the source.",
  "data": [
    {"smiles": "CCCCCCCCCCCCCCCC(=O)NC1C(O)CC(OCC)(C(=O)N(C)C)OC1C(O)C(O)CO", "note": "(stereo not drawn) [ND37, β-2-O-ethylglycoside of the dimethylamide of N-palmitoylneuraminic acid]", "values": [
      {"measurement": "viability at 10 µM", "setting": "[1]; ND37 1 × 10^-5 M", "result": "34 ± 2", "unit": "%"},
      {"measurement": "viability at 20 µM", "setting": "[1]; ND37 2 × 10^-5 M", "result": "70 ± 6", "unit": "%"},
      {"measurement": "viability at 40 µM", "setting": "[1]; ND37 4 × 10^-5 M", "result": "88 ± 4.5", "unit": "%"},
      {"measurement": "glutamate increase induced by KCl in the culture medium", "setting": "[2]; 20 μM", "result": "completely abolished"},
      {"measurement": "extracellular increase of glutamate and aspartate induced by KCl", "setting": "[2]; 20 μM, KCl 15, 25, 30, and 50 mM", "result": "completely abolished"},
      {"measurement": "Extracellular glutamate content", "setting": "[2]; KCl (50 mM) + ND37 (0.1 uM)", "result": "12.60 ± 0.57", "unit": "µM"},
      {"measurement": "Extracellular glutamate content", "setting": "[2]; KCl (50 mM) + ND37 (1 uM)", "result": "13.30 ± 1.33", "unit": "µM"},
      {"measurement": "Extracellular glutamate content", "setting": "[2]; KCl (50 mM) + ND37 (10 uM)", "result": "5.60 ± 2.37", "unit": "µM"},
      {"measurement": "Extracellular glutamate content", "setting": "[2]; KCl (50 mM) + ND37 (20 uM), Table 4", "result": "0.11 ± 0.09", "unit": "µM"},
      {"measurement": "activity at 0.1 µM", "setting": "[2]; Rattus norvegicus, 2 h, KCl (50 mM) + ND37 (0.1 uM)", "result": 72, "unit": "%"},
      {"measurement": "activity at 1 µM", "setting": "[2]; Rattus norvegicus, 2 h, KCl (50 mM) + ND37 (1 uM)", "result": 76, "unit": "%"},
      {"measurement": "activity at 10 µM", "setting": "[2]; Rattus norvegicus, 2 h, KCl (50 mM) + ND37 (10 uM)", "result": 32, "unit": "%"},
      {"measurement": "activity at 20 µM", "setting": "[2]; Rattus norvegicus, 2 h, KCl (50 mM) + ND37 (20 uM), Table 4, read-out: % KCl 50 Mm (extracellular glutamate)", "result": 0.01, "unit": "%"},
      {"measurement": "activity at 20 µM", "setting": "[2]; Rattus norvegicus, 2 h, group 3: KCl (50 mM) + ND37 (20 uM) as printed, corresponding group KCl (30 mM), read-out: % corresp. KCl (aspartate)", "result": 0.06, "unit": "%"},
      {"measurement": "activity at 20 µM", "setting": "[2]; Rattus norvegicus, 2 h, group 3: KCl (50 mM) + ND37 (20 uM) as printed, corresponding group KCl (30 mM), read-out: % corresp. KCl (glutamate)", "result": 0.01, "unit": "%"},
      {"measurement": "activity at 20 µM", "setting": "[2]; Rattus norvegicus, 2 h, group 4: KCl (50 mM) + ND37 (20 uM), Table 5, read-out: % corresp. KCl (aspartate)", "result": 0.13, "unit": "%"},
      {"measurement": "activity at 20 µM", "setting": "[2]; Rattus norvegicus, 2 h, group 4: KCl (50 mM) + ND37 (20 uM), Table 5, read-out: % corresp. KCl (glutamate)", "result": 0.02, "unit": "%"},
      {"measurement": "activity at 20 µM", "setting": "[2]; Rattus norvegicus, 2 h, group 5: KCl (50 mM) + ND37 (20 uM) as printed, corresponding group KCl (25 mM), read-out: % corresp. KCl (aspartate)", "result": 0.28, "unit": "%"},
      {"measurement": "activity at 20 µM", "setting": "[2]; Rattus norvegicus, 2 h, group 5: KCl (50 mM) + ND37 (20 uM) as printed, corresponding group KCl (25 mM), read-out: % corresp. KCl (glutamate)", "result": 0.06, "unit": "%"},
      {"measurement": "activity at 20 µM", "setting": "[2]; Rattus norvegicus, 2 h, group 6: KCl (50 mM) + ND37 (20 uM) as printed, corresponding group KCl (15 mM), read-out: % corresp. KCl (aspartate)", "result": 0.09, "unit": "%"},
      {"measurement": "activity at 20 µM", "setting": "[2]; Rattus norvegicus, 2 h, group 6: KCl (50 mM) + ND37 (20 uM) as printed, corresponding group KCl (15 mM), read-out: % corresp. KCl (glutamate)", "result": 0.34, "unit": "%"},
      {"measurement": "inhibition at 0.1 µM", "setting": "[2]; Rattus norvegicus, 2 h, 0.1 μM, read-out: reduction of extracellular glutamate induced by KCl", "result": "~30", "unit": "%"},
      {"measurement": "Extracell. aspartate content", "setting": "[2]; [4]", "result": 0.039, "unit": "µM"},
      {"measurement": "Extracell. glutamate content", "setting": "[2]; [4]", "result": 0.362, "unit": "µM"},
      {"measurement": "basal levels (controls) of extracellular glutamate and aspartate", "setting": "[2]; doses up to 20 μM", "result": "did not modify"},
      {"measurement": "Extracell. aspartate content", "setting": "[2]; [5]", "result": 0.063, "unit": "µM"},
      {"measurement": "Extracell. glutamate content", "setting": "[2]; [5]", "result": 0.318, "unit": "µM"},
      {"measurement": "Extracell. aspartate content", "setting": "[2]; [6]", "result": 0.078, "unit": "µM"},
      {"measurement": "Extracell. glutamate content", "setting": "[2]; [6]", "result": 0.246, "unit": "µM"},
      {"measurement": "Extracell. aspartate content", "setting": "[2]; [7]", "result": 0.107, "unit": "µM"},
      {"measurement": "Extracell. glutamate content", "setting": "[2]; [7]", "result": 0.330, "unit": "µM"},
      {"measurement": "Extracell. aspartate content", "setting": "[2]; [8]", "result": 0.046, "unit": "µM"},
      {"measurement": "Extracell. glutamate content", "setting": "[2]; [8]", "result": 0.899, "unit": "µM"},
      {"measurement": "inside currents activated by glutamate (whole cell response)", "setting": "[3]", "result": "does not influence the control response; also recorded: not different"}
    ]}
  ]
}
